The target in assay [1] is T1, p38/MK2 interaction (Homo sapiens, UniProt Q16539). The assay can be described thus: TR-FRET assay with purified recombinant His-p38 and GST-MK2. The assay is classed as binding. Conditions: for IC50: purified His-p38 and GST-MK2, read-out: IC50, inhibition of p38/MK2 PPI (TR-FRET, recombinant purified proteins); for inhibition at 30 µM: read-out: inhibition of p38/MK2 PPI at 30 μM, recombinant purified proteins. The protocol:
ENSG00000112062, UniProt ID: Q16539-1) was cloned into a pMCSG7 vector and transformed into Escherichia coli strain BL21(DE3). […] The resuspended cells were lysed through sonication. The lysate was centrifuged for 20 min at 70,000g at 4 °C and the clarified supernatant was passed through a gravity column containing 2 mL Ni-NTA resin pre-equilibrated with equilibration buffer. The resin was then washed with 25 column volumes of equilibration buffer supplemented with 40 mM imidazole, and the protein was eluted with equilibration buffer supplemented with 200 mM imidazole. […] The purity of the enzyme was verified by sodium dodecyl sulfate-polyacrylamide gel electrophoresis (SDS-PAGE) with Coomassie staining, aliquots flash frozen in liquid nitrogen, and stored at -80 °C.
In general terms: TR-FRET usually uses a lanthanide donor and a delayed reading to cut background.

Assay [2] addresses T1, p38/MK2 interaction. The assay can be described thus: TR-FRET ultra-high-throughput screening (uHTS), 1536-well, HEK293T lysate VF-p38α / GST-MK2. The conditions noted are these: for inhibition of p38/MK2 interaction, primary screen: relative to DMSO control, 1536-well; for 620 nm Fold over Control: fluorescence interference readout; for Pct of control: uHTS TR-FRET signal, Emory Enriched Library. Further details: inhibition of p38/MK2 interaction, primary screen: concentration or dose not given beside the values. The assay is classed as binding.

Assay [3] concerns the target T1, p38/MK2 interaction. Put plainly: Cell lysate-based TR-FRET (VF-p38 / GST-MK2, HEK293T lysate), dose-response. Conditions: read-out: IC50, p38/MK2 PPI, cell lysate-based TR-FRET. The format is binding.
Assay [4] deals with VF-tagged p38 / His-tagged MK2 346–400 docking peptide (Homo sapiens, UniProt Q16539). Put plainly: Cell lysate-based TR-FRET competition assay, VF-p38 / His-MK2 346–400 docking peptide. The conditions noted are these: HEK293T lysate TR-FRET; read-out: IC50, binding of His-MK2 346–400 docking peptide to VF-p38.
Another assay concerns HMC3 microglial cells. Put plainly: qRT-PCR of LPS-induced cytokine expression in HMC3 microglial cells. The assay is classed as cell-based, human. Conditions: HMC3, 5 μM compound 1 h before 100 ng/mL LPS 4 h. The protocol:
HMC3 cells were treated with 100 ng/mL E. coli LPS (Sigma-Aldrich, catalog no. L4005) for 4 h in DMEM media. […] Following pretreatment, iMGLs were challenged with 100 ng/mL LPS and 20 ng/mL interferon-γ (IFN-γ) for 24 h to induce an inflammatory response. At the end of the stimulation, cell lysates were collected for qPCR analysis of TNF-α […] gene expression. Total RNA isolation from cell samples was conducted using the RNeasy Plus kit (Qiagen, catalog no. 74134) according to manufacturer instructions and treated with DNase I (Invitrogen, catalog no. 18068-015). Extracted RNA was quantified using the Nanodrop One Spectrophotometer (Thermo Scientific) and then reverse-transcribed into cDNA in equal quantity (<1000 ng/reaction) with the SuperScript III System (Invitrogen, catalog no. 18080-051) following manufacturer directions. cDNA sample was treated with RNase H (Invitrogen, catalog no. 18021014) and diluted to 4 ng/μL equivalent of the starting total RNA. qPCR was performed in 96-well PCR plates (BioRad, catalog no. HSP9601) using the Realplex4Mastercycler (Eppendorf). Each reaction well combines 5 μL cDNA sample, 10 μL 2X SYBR Green Supermix (BioRad, catalog no. 1725271), 1 μL 5 μM primer mix for each target gene, and nuclease-free water up to 20 μL. […] The primer sequences used were: TNFα forward [NT], reverse [NT]-6 forward [NT], reverse [NT]-1β forward [NT], reverse [NT] Each gene was expression-normalized against the housekeeping gene GAPDH with the primer sequences: forward [NT], reverse [NT] Primers were obtained from Integrated DNA Technologies in lyophilized form. The cycler program was set to denaturation at 95 °C for 15 s, followed by annealing and extension at 60 °C for 60 s, repeated for 40 PCR cycles. Melting curve analyses were performed for each sample to ensure primer specificity. The experiment was performed in biological quadruplicates and technical quadruplicates.

For assay [5], the target named is T2, His-tagged p38α (MAPK14), purified recombinant (human, UniProt Q16539-1 1-360).
T2 construct: also called His-p38; His-p38α; source: E. coli BL21(DE3), purified (Ni-NTA, S200 size exclusion), in-house; or bought: Abcam AB271606; for the FP assay obtained from research collaborators
The assay can be described thus: FRET or BRET; TR-FRET with purified His-p38α (10 nM) and GST-MK2 (1 uM), anti-His-d2 and anti-GST-Tb antibodies; 20 mM Tris-HCl pH 7.0, 50 mM NaCl, 0.01% NP-40; room temperature, 2 h; peptides or compounds added as competitors. Conditions: both partners purified. Background: In BRET a luciferase serves as donor, and the signal depends on an acceptor being close.

The target of assay [6] is T2, His-tagged p38α (MAPK14), purified …. Put plainly: fluorescence polarisation; 10 nM FITC-MK2 peptide with His-p38α serially diluted 2-fold from a 5 uM working solution; 20 mM Tris-HCl pH 7.0, 50 mM NaCl, 0.01% NP-40; 384-well plate. Conditions: both partners purified. (Polarisation of emitted light reports the rotation of a fluorescent probe.)

Entries after “also recorded” stand apart in the source; their conditions may differ. Where no end group is shown, it is not given here. Some results are limits rather than exact numbers.

T1 sequence (Q16539 whole entry): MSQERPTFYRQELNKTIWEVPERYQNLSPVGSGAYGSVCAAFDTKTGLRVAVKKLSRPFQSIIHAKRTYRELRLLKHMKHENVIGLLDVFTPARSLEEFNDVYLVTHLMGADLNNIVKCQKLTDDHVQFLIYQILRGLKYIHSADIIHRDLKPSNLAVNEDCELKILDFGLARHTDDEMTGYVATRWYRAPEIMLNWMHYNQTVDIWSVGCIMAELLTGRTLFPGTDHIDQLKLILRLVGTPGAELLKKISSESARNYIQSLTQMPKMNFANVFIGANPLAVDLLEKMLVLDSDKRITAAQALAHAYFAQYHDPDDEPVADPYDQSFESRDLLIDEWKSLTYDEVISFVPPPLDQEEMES
T2 sequence (Q16539 whole entry): as above
Sequence of VF-tagged p38 / His-tagged MK2 346–400 docking peptide (Q16539 whole entry): as above

As to `CCc1cn(-c2cc(NC(=O)c3ccc(C)c(Nc4nccc(-c5cccnc5)n4)c3)cc(C(F)(F)F)c2)cn1` [Compound 2], the IC50 at p38/MK2 interaction [1] came to 2.27 µM.

For `Cc1cn(-c2cc(NC(=O)c3ccc(C)c(Nc4ncccn4)c3)cc(C(F)(F)F)c2)cn1` [Compound 5], on p38/MK2 interaction [1], the IC50 came to 11.5 µM. `C=C(c1ccc(C(=O)O)cc1)c1cc2c(cc1C)C(C)(C)CCC2(C)C` [bexarotene]: at p38/MK2 interaction [2], the “inhibition of p38/MK2 interaction, primary screen” value (shortened to “inhibition of p38/MK2 interaction”) is 74%.

Take `COc1cc2nc(N3CCN(C(=O)C4CCCO4)CC3)nc(N)c2cc1OC` (stereo not drawn) [terazosin]: the IC50 was found to be 6.2 µM on p38/MK2 interaction [1], 10.5 µM on p38/MK2 interaction [3] and 8.3 µM in assay [4]. For the same molecule, the “inhibition of p38/MK2 interaction” value against p38/MK2 interaction [2] came to 77%. Moreover, the “LPS-induced TNF-α, IL-6, and IL-1β expression” value (“LPS-induced TNF-α” for short) in the assay on HMC3 microglial cells is “significantly (p-values <0.05) suppressed”. `CCCCCCCCCCCCc1ccc(S(=O)(=O)Nc2nncs2)cc1` [PHT-427, 4-dodecyl-N-(1,3,4-thiadiazol-2-yl)benzenesulfonamide]: on p38/MK2 interaction [2], the “620 nm Fold over Control” value was 0.94 and the Pct of control is given as -2.49 Pct of control. Turning to `C[C@@H]1[C@H](O)[C@@H](C)/C=C/C=C/C=C/C=C/C=C/C=C/C=C/[C@H](O[C@@H]2O[C@H](C)[C@@H](O)[C@H](N)[C@@H]2O)C[C@@H]2O[C@](O)(C[C@@H](O)C[C@@H](O)[C@H](O)CC[C@@H](O)C[C@@H](O)CC(=O)O[C@H]1C)C[C@H](O)[C@H]2C(=O)O` [amphotericin B], on p38/MK2 interaction [2], the “inhibition of p38/MK2 interaction” value came out at 51%. Regarding `Cc1cn(-c2cc(NC(=O)c3ccc(O)c(Nc4nccc(-c5cccnc5)n4)c3)cc(C(F)(F)F)c2)cn1` [Compound 4], at p38/MK2 interaction [1], the IC50 was 8.24 µM. In the case of `Cc1cn(-c2cc(NC(=O)c3[nH]cnc3C#N)cc(C(F)(F)F)c2)cn1` [Compound 9], on p38/MK2 interaction [1], the inhibition at 30 µM was < 50%. In the case of `CN(C)[C@@H]1C(O)=C(C(N)=O)C(=O)[C@@]2(O)C(O)=C3C(=O)c4c(O)cccc4[C@@](C)(O)[C@H]3[C@H](O)[C@@H]12` [oxytetracycline], at p38/MK2 interaction [2], the “inhibition of p38/MK2 interaction” value is given as 51%. Still for that read-out and setting: with `Cc1cc(C(C#N)c2ccc(Cl)cc2)c(Cl)cc1NC(=O)c1cc(I)cc(I)c1O` (stereo not drawn) [closantel] the figure was 53%. For `O=c1ncn2nc(Sc3ccc(F)cc3F)ccc2c1-c1c(Cl)cccc1Cl` [VX-745], at p38/MK2 interaction [1] (recombinant p38 and MK2 purified from E. coli), the “disruption of p38/MK2 interaction (TR-FRET signal)” value is recorded as “failed to disrupt the interaction; also recorded: failed to reduce the TR-FRET signal”. Take `C=CC(=O)Nc1ccc2ncnc(Nc3ccc(OCc4cccc(F)c4)c(Cl)c3)c2c1` [AST-1306, N-[4-[3-chloro-4-[(3-fluorophenyl)methoxy]anilino]quinazolin-6-yl]prop-2-enamide;4-methylbenzenesulfonic acid]: on p38/MK2 interaction [2], the “620 nm Fold over Control” value is 1.01 and the Pct of control is reported as 9.2 Pct of control. On to `COc1cc2nc(N3CCN(C(=O)C4COc5ccccc5O4)CC3)nc(N)c2cc1OC` (stereo not drawn) [doxazosin], for which the IC50 on p38/MK2 interaction [1] turned out to be 4.4 µM; at p38/MK2 interaction [3], 30.1 µM; in assay [4] it was 4.6 µM. The “inhibition of p38/MK2 interaction” value on p38/MK2 interaction [2] is given as 58%. Besides, in the assay on HMC3 microglial cells, the “LPS-induced TNF-α” value is given as “significantly (p-values <0.05) suppressed”. On to `CNC(=O)c1ccc(CCNC(=O)C(=O)Nc2cc(-n3cnc(C)c3)cc(C(F)(F)F)c2)cc1` [Compound 6], for which, at p38/MK2 interaction [1], the IC50 is 21.3 µM. As for `CS(=O)(=O)c1ccc(C2=C(c3ccccc3)C(=O)OC2)cc1` [rofecoxib], on p38/MK2 interaction [2], the “inhibition of p38/MK2 interaction” value is 73%. Turning to `CCOc1nc2cccc(C(=O)OC(C)OC(=O)OC3CCCCC3)c2n1Cc1ccc(-c2ccccc2-c2nnn[nH]2)cc1` (stereo not drawn) [candesartan cilexetil], the “inhibition of p38/MK2 interaction” value against p38/MK2 interaction [2] is recorded as 68%.

Take `CN1CCc2cccc3c2[C@H]1Cc1ccc(O)c(O)c1-3` [apomorphine]: the “inhibition of p38/MK2 interaction” value against p38/MK2 interaction [2] turned out to be 56%.

For the molecule `Cc1cn(-c2cc(NC(=O)Nc3nnc(-c4ccncc4)s3)cc(C(F)(F)F)c2)cn1` [Compound 7], the inhibition at 30 µM on p38/MK2 interaction [1] is < 50%. Turning to `Cc1cn(-c2cc(NC(=O)C(=O)NCc3cccc(C(N)=O)c3)cc(C(F)(F)F)c2)cn1` [Compound 8], the inhibition at 30 µM at p38/MK2 interaction [1] was < 50%. On to `Cc1cn(-c2cc(C(=O)Nc3ccc(C)c(Nc4nccc(-c5cccnc5)n4)c3)cc(C(F)(F)F)c2)cn1` [Compound 3], for which, at p38/MK2 interaction [1], the IC50 is 7.45 µM. For `COc1cc2nc(N(C)CCCNC(=O)C3CCCO3)nc(N)c2cc1OC` (stereo not drawn) [alfuzosin], the results for the IC50 (on p38/MK2 interaction [1]; at p38/MK2 interaction [3]; in assay [4]) were 6.9 µM, 10 µM and 14.4 µM, respectively. The “inhibition of p38/MK2 interaction” value against p38/MK2 interaction [2] turned out to be 82%. Besides, in the assay on HMC3 microglial cells, the “LPS-induced TNF-α” value is given as “significantly (p-values <0.05) suppressed”.

On to `COc1ccc(CC(=O)Nc2cc(-n3cnc(C)c3)cc(C(F)(F)F)c2)nc1` [Compound 10], for which the inhibition at 30 µM on p38/MK2 interaction [1] was < 50%.

B1: FITC-MK2 369–382 peptide (peptide, UniProt P49137 369-382, looked up)
peptide: QIKIKKIEDASNPL
modifications: not fully specified (N-terminus); also: FITC label (position not given here)
notes: MK2 (MAPKAPK2) C-terminal docking motif, residues 369-382 as named in the text; 369-382 would be 14 residues; the legend's I370-L382 is 13 residues; also called I370-L382; truncated 13-residue peptide
In the case of B1, the IC50 in assay [5] turned out to be 4.26 µM.

B2: FITC-MK2 370–393 peptide (peptide, UniProt P49137 370-393, looked up)
peptide: IKIKKIEDASNPLLLKRRKKARAL
modifications: not fully specified (N-terminus); also: FITC label (position not given here)
notes: MK2 (MAPKAPK2) C-terminal docking motif, residues 370-393 (I370-L393); the methods name the peptide 370-390; also called I370–L393; FITC conjugated MK2 370–390 peptide (methods); source: synthetic peptide, bought: GenScript
With B2, in assay [6], the EC50 is 0.0269 µM. In addition, the IC50 in assay [5] turned out to be 0.42 µM.

For orientation: EC50 means the concentration needed to bring the measured effect to its halfway point.
